How the values were obtained:
[1] = molecular target: T1, Solute carrier family 22 member 6 (Rattus norvegicus, UniProt O35956); test: TP_TRANSPORTER: quantitative PCR in vivo, SD rat, kidney; type: functional, organism-based, Sprague-Dawley
T1 sequence (O35956 whole entry): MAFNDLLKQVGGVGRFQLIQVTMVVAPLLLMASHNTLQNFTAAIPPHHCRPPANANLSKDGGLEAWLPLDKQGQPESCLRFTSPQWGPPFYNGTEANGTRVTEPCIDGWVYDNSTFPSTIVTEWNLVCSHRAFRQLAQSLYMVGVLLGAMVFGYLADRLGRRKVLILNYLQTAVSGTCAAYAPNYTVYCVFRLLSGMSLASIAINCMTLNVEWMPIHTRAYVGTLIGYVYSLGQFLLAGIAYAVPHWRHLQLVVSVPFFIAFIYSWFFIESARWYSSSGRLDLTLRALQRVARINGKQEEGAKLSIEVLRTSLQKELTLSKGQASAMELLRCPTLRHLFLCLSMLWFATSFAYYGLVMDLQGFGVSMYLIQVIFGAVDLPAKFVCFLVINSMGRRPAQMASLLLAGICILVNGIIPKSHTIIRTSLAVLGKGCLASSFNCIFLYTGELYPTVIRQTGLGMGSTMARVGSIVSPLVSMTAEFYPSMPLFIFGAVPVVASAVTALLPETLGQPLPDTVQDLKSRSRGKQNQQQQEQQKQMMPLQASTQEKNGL

[2] = molecular target: T1, Solute carrier family 22 member 6; test: TP_TRANSPORTER: Western in vivo, SD rat, kidney; type: functional, organism-based, Sprague-Dawley

- Activity [1]: inducer []
- Activity [2]: inducer []
Compound: NS(=O)(=O)c1cc(C(=O)O)c(NCc2ccco2)cc1Cl [FUROSEMIDE]

From ChEMBL document CHEMBL2074143, “Up-regulation of organic anion transporter 1 protein is induced by chronic furosemide or hydrochlorothiazide infusion in rat kidney” (Nephrol Dial Transplant, 2003)
